Experimental findings from patent US5521156A, “Cyclic neurokinin A antagonists” (priority 1994, dated 1996) are described below.

Where a SMILES comes first, the peptide text is derived from it. [ ]: non-standard residue; d: D form.

Assay [1] addresses T1, NK-1 receptor (Cavia porcellus, UniProt P30547).
T1 construct: tissue Keystone Biologicals, Cleveland, OH; host or cells: guinea pig lung
Kind of assay: NK-1 receptor binding (125I-Bolton-Hunter substance P) in guinea pig lung membranes. Conditions: 0.1 nM 125I-Bolton-Hunter Lys-3 substance P, mean ± S.E.M. Here is the method: Receptor binding assays were performed in crude tissue membranes. The NK-1 receptor binding affinity of proposed tachykinin antagonists was evaluated in guinea pig lungs (Keystone Biologicals, Cleveland, OH, kept frozen at -80° C. until use). Affinity for the NK-2 receptor was evaluated in HSKR-1 cells which are mouse 3T3 fibroblasts expressing the human jejunal NK-2 receptor. Tissues or cells were homogenized with a Polytron in 15 volumes of 50 mM Tris-HCl buffer (pH 7.4, 4° C.) containing 120 mM NaCl and 5 mM KCl and centrifuged at 48,000×g for 12 min. at 4° C. The pellet was resuspended in 15 volumes of 50 mM Tris-HCl buffer containing 10 mM EDTA and 300 mM KCl then set on ice for 30 min. The suspension was cetrifuged as above and the pellet washed by resuspension and cetrifugation two additional times in 50 mM Tris-HCl buffer (pH 7.4, 4° C.). The final pellet was resuspended in a concentration of 20 mg/ml in incubation buffer then kept at room temperature for at least 15 min prior to use. Receptor binding was initiated by addition of 250 μl membrane preparation (final protein concentration; lungs=286 μg/tube, HSKR-1 cells=100 μg/tube) in duplicate to 0.1 nM of the following radioligands: for NK-1 receptor assays, ^125 I-Bolton-Hunter Lys-3 labeled substance P (New England Nuclear, specific activity, 2200 Ci/mmol); for NK-2 receptor assays, ^125 iodohistidyl-1-neurokinin A (Amersham, specific activity, 2000 Ci/mmol) in a final volume of 500 μl of buffer containing 50 mM Tris-HCl (pH 7.4 at room temperature), 0.1% bovine serum albumin, 2 mM MnCl2, 40 μg/ml bacitracin, 4 μg/ml leupeptin and chymostatin, 1 μM thiorphan and various doses of the tachykinin antagonists. Incubations were performed at room temperature for 90 min (NK-1 receptor assays) or 2 hr (NK-2 receptor assays); binding was terminated by addition of 50 mM Tris-HCl buffer (pH 7.4, 4° C.) and filtration under vacuum through GF/B filters presoaked with 0.1% polyethyleneimine (NK-1 receptor assays) or 0.5% bovine serum albumin (NK-2 receptor assays). Nonspecific binding was defined as binding in the presence of 1 μM substance P (NK-1 receptor assays) or neurokinin A (NK-2 receptor assays) (Peptides International, Inc., Louisville, Ky.). Specific binding was calculated by subtracting nonspecific binding from total binding and corresponded to 70-90% of total binding. Data were analyzed and IC50 values generated by nonlinear regression using an iterative curve fitting program (GraphPAD Inplot, San Diego, Calif.). Protein was determined by the method of Lowry.

In assay [2] the target is T2, bovine stomach NK-2 receptor (Bos taurus, UniProt P05363).
T2 construct: expressed in transfected cells; host or cells: SKLKB82#3 (mouse fibroblast cell line)
T2 sequence (P05363 1-384): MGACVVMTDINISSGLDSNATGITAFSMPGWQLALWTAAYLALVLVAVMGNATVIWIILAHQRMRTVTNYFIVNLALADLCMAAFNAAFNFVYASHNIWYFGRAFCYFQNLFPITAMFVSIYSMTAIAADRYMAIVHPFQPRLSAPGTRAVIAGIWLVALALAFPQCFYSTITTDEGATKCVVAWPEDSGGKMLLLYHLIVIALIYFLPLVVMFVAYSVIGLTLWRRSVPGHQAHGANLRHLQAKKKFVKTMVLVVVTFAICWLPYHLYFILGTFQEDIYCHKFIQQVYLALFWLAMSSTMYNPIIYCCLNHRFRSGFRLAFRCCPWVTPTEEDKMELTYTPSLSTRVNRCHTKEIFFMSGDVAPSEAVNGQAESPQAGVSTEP
Put plainly: Antagonism of NK-2 receptor mediated phosphatidylinositol turnover in SKLKB82#3 cells. It counts as cell-based. Conditions: Schild regression vs NKA, 95% confidence limits 8.22 to 8.69, read-out: pA2 (converted). As for the experimental part:
Cultured SKLKB82#3 (bovine stomach NK-2 receptor transfected into mouse fibroblast cell line) cells were seeded onto 24-well plates at 125,000 cells/well, two-three days prior to assay. Cells were loaded with 0.5 ml of 0.2 μM myo[2-^3 H(N)] inositol (American Radiolabeled Chemicals Inc., specific activity, 20 Ci/mmol) 20-24 hrs prior to assay. Cultured cells were maintained at 37° C. in a 5% CO2 environment. On the day of the assay, media was aspirated and the cells incubated in D-MEM/F-12 media containing 40 μg/ml bacitracin, 4 μg/ml each of leupeptin and chymostatin, 0.1% bovine serum albumin and 1 μM thiorphan and 10 mM LiCl. After 15 min., cyclo[Tyr-trp-Leu-Arg-Trp-Gly] SEQ. ID 6 (concentration range 0.3 nM -10 μM) was added to the cells in a volume of 0.1 ml. […] The third elution was collected and counted in 9 ml scintillation fluid. A 50 μl aliquot of the organic (bottom) phase was removed, dried in a scintillation vial and counted in 7 ml scintillation fluid.
The ratio of DPM in the aqueous phase aliquot (total inositol phosphates) to the DPM in the 50 μl organic phase aliquot (total [^3 H]-inositol incorporated) was calculated for each sample. Data are expressed as a percent of agonist-induced accumulation of [3H]-inositol phosphates over basal leTels. […]

T1 sequence (P30547 whole entry): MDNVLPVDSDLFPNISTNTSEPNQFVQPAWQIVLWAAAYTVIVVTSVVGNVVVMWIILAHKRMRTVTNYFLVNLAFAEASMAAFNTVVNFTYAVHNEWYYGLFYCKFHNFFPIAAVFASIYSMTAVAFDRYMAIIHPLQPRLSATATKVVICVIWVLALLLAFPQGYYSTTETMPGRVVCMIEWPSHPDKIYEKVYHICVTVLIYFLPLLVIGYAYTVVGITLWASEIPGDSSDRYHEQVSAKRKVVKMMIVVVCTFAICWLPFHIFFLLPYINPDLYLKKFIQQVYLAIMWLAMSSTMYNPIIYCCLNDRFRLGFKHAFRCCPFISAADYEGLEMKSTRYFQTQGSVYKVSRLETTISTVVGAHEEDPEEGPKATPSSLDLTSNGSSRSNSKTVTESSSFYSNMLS

On to `CC(C)C[C@@H]1NC(=O)[C@@H](Cc2c[nH]c3ccccc23)NC(=O)[C@H](Cc2ccc(O)cc2)NC(=O)CNC(=O)[C@H](Cc2c[nH]c3ccccc23)NC(=O)[C@H](CCCNC(=N)N)NC1=O` [cyclo[Tyr--trp--Leu--Arg--Trp--Gly], cyclo[Tyr-trp-Leu-Arg-Trp-Gly]] (cyclo(GY[dW]LRW)), for which the IC50 in assay [1] was 6190 ± 277 nM. For the same compound, the Kb in assay [2] is 0.00355 µM.

The IC50 is the point on the concentration scale where inhibition reaches its midpoint.
